The subject of assay [1] is Phosphorylation of GSK3β(S9). Briefly: p70 S6K/AKT In Vivo Target Inhibition, U87MG xenograft, pGSK3β. More on the design: species or system athymic nude mice. The following applies: Mus musculus, U-87 MG, IV Dose 12.5 mpk, U87MG tumors, read-out: p(S9)GSK 3β - % inhibition. The procedure: U87MG human glioblastoma cells (5×106) are subcutaneously implanted into the flank of athymic nude mice in 0.2 mL of matrigel. Two weeks post-implantation, mice are dosed orally or parenterally according to a time course, single dose/single time point, or dose response protocol for the determination of TMED50 (threshold minimum effective dose). Tumors are flash frozen at harvest and blood is collected for the determination of parent compound plasma exposure and the calculation of TMEC50 (threshold minimum effective concentration) in the case of dose response studies. Tumors or tissues are pulverized in liquid N2 and lysed in 400 μL of XY Lysis Buffer (10 μg/mL Leupeptin, 10 μg/mL Trypsin-Chymotrypsin Inhibitor, 10 μg/mL Tosyl phenyl-alanyl chloromethyl ketone, 10 μg/mL Aprotinin, 60 mM Beta-Glycerol Phosphate, 1% Triton X100, 25 mM Tris pH 7.5, 2.5 mM Pyrophosphate, 150 mM NaCl, 2 mM p-tosyl-L-arginine methyl ester, 15 mM para-nitrophenyl phosphate, 5 mM Benzamidine, 1 mM Na Vanadate, 10 mM NaF, 50 μg/mL phenyl-methane sulfonyl fluoride, 1 mM 1,4-Dithiothreitol (DTT), 15 mM EDTA pH 8.0, 5 mM EGTA pH 8.0, 1 μM Microcystin, 1 μM Okadaic Acid, and 1 Roche Complete protease inhibitor mini-tablet per 10 mL) using Lysing Matrix D tubes (MP Biomedicals, Solon, Ohio, cat#6913-500) and a BIO101 Thermo Savant Fast Prep FP12. Lysates are aliquoted and either assayed immediately or stored at −80° C. for later testing. In Vivo Target Inhibition of p70 S6K and AKT is measured utilizing Meso Scale Discovery (Gaithersburg, Md.) ELISA technology to assess effects on phosphorylation of the serine 240/244 site of the downstream effector S6RP. Phosphorylation of p70 S6K(T389), AKT(5473) and GSK3β(S9) is also assessed using this technology in a multiplex format. In summary, 20 μg of lysate is added to carbon electrode containing 96-well plates pre-spotted with the appropriate capture antibodies. The protein of interest is probed using a ruthenium labeled detection antibody. Upon the passage of current over the electrode in the presence of read buffer containing the co-reactant TPA, electro-chemiluminescence results in the generation of light which is quantified and recorded using the MSD Sector 6000 instrument. For each study, percent inhibitions are calculated relative to the vehicle control group and ANOVA analysis is performed using the JMP software package for the determination of statistical significance.

For a further assay, the target named is T1, p70 S6 Kinase (Homo sapiens, UniProt P23443, T412E).
T1 construct: amino acids 1-421, T412E; His tag (N)
Briefly: p70 S6 Kinase In Vitro Enzyme Assay (Transcreener Kinase ADP-FP). The format is biochemical. The following applies: 25 micromolar ATP; read-out: IC50 against p70 S6 Kinase. The procedure:
Compound IC50 values against p70 S6 Kinase target are determined using the p70 S6 Transcreener™ Kinase ADP-FP Assay. This assay assesses the activity of p70 S6 kinase in the presence of compound inhibitors by measuring the concentration of adenosine diphosphate (ADP) formed in a kinase reaction. The kinase reactions (25 μL reaction volumes) are performed in 96-well half-area black polystyrene plates. Adenosine triphosphate (ATP) is added to start the reactions. Final reaction conditions are 10 millimolar N-2-hydroxyethyl-piperazine-N′-2-ethanesulfonic acid (HEPES) pH 7.5, 0.005% TRITON™ X-100, 0.082 millimolar ethyleneglycol tetraacetic acid (EGTA), 1 millimolar dithiothreitol, 10 millimolar magnesium chloride, 4 micromolar substrate peptide, 25 micromolar ATP, active p70 S6 Kinase (Human recombinant, amino acids 1-421, T412E, N-terminal histidine-tagged), 4% DMSO and serial dilutions of compound (diluted 1:3 from 20,000 to 1 nanomolar). […] Quenched reactions are incubated for 4-16 hours, and then read in a Tecan Ultra Evolution plate reader in Fluorescence Polarization mode using polarizing filters of Ex612nm and Em633nm wavelength. […] The IC50 value for each compound is derived using percent inhibition data which is calculated using the micromolar ADP reaction data relative to on-plate controls (active enzyme versus 100 millimolar inhibited enzyme controls). […]

pIC50: −log10 of the molar value. Like-named read-outs stand apart in the source and are kept apart here.

Broadly, the inhibition is the change of the read-out against control, counted positive when it falls. What is called pIC50 is −log10 of the IC50, conventionally taken in molar units.

T1 sequence (P23443 1-421 T412E): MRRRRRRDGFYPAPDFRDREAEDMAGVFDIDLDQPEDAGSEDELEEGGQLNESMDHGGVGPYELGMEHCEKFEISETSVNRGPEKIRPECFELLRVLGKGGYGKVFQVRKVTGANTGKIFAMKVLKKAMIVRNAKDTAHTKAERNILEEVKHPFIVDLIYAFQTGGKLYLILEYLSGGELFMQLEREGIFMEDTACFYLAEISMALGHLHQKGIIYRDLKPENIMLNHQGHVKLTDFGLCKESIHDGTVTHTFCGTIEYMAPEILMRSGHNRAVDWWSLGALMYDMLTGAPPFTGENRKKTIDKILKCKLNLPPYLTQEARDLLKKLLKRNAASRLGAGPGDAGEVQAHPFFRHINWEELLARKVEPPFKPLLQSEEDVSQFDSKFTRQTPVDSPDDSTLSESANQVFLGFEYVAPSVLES

On to `CN(C)CCn1cc(-c2ccc(F)c(C(F)(F)F)c2)nc1C1CCN(c2ncnc3c2C(C)(C)C(=O)N3)CC1` [Example 31], for which the inhibition at 12.5 mg/kg amounted to 48.4% in assay [1] (1 hr post IV dose); 12.6% in assay [1] (2 hr post IV dose); 20.5% in assay [1] (4 hr post IV dose); 51.7% in assay [1] (6 hr post IV dose); 20.1% in assay [1] (8 hr post IV dose); 6% in assay [1] (24 hr post IV dose). Also, the negative logarithm of the IC50 (pIC50) at p70 S6 Kinase is 8.15.

The values above are taken from patent publication US8148387B2, “AKT and P70 S6 kinase inhibitors” (Eli Lilly and Company, priority 2008, dated 2012).
